Earlier results on one compound are cited in patent US12234492B2, “Microorganism for fermentative production of 2-phenylethanol from gaseous substrates” (LanzaTech, Inc., priority 2020, dated 2025).

Values joined by “and” are separate entries in the source; they are usually repeats but may differ in a detail not shown here. Equal values may be shown once.

One series concerns Staphylococcus aureus. Conditions: range given jointly for S. aureus and E. faecium; Cone et al. 1990.
The test system of a further series is Enterococcus faecium. The conditions noted are these: range given jointly for S. aureus and E. faecium; Cone et al. 1990.

On to `OCCc1ccccc1` [2-PE, 2-phenylethanol], for which the growth inhibitory level with Staphylococcus aureus was 26-43 mM and 3.2-5.3 g/L; in the series on Enterococcus faecium, 26-43 mM and 3.2-5.3 g/L.
